Patent US20220315598A1, “Oxygen-containing Heterocyclic Compound, Preparation Method Therefor and Use Thereof” (SHANGHAI YINGLI PHARMACEUTICAL CO., LTD, priority 2019, published 2022)
Read-outs that look alike come from different tables or passages of the source.

Key:
MIA PaCa-2 cells = experiment: Proliferation inhibition on MIA PaCa-2 cell line by CTG method; format: cell-based, human; conditions: Homo sapiens, MIA PaCa-2, Table 2, CellTiter Glo, 120 hours
Protocol: Experiments for Testing Proliferation Inhibition of Compounds on MIA PaCa-2 Cell Lines by CTG Method
40 μL of MIA PaCa-2 cell suspension was added to each well (except for peripheral wells) of 384-well plates. The plates were placed in a carbon dioxide incubator overnight. […] The plates were incubated in a carbon dioxide incubator for 120 hours. To the 384-well plates were added 25 μL of CellTiter Glo reagents, and the mixture was shaken in the dark for 10 minutes and incubated for 10 minutes. The plates were read on the EnVision plate reader. XLFit was used to draw inhibition rate curves of efficacy and IC50 values were calculated. […] “---” represents not determined.
MIA PaCa-2 was a human pancreatic cancer cell with KRAS G12C mutation. The activity of compounds can be evaluated by detecting the proliferation inhibitory activity of these compounds on such cell line.

A375 cells = experiment: Proliferation inhibition on A375 cell line by CTG method; format: cell-based; conditions: Table 1, CellTiter Glo, 120 hours, class symbol
Protocol: (§1) NCI-H358 was a human non-small cell lung cancer cell with KRAS G12C mutation; A549 was a human non-small cell lung cancer cell with KRAS G12V mutation: and A375 was a wild-type malignant melanoma cell. The inhibitory effects of compounds on different mutations were evaluated by testing the proliferation inhibitory activity of these compounds on the three cell lines.
(§2) 40 μL of cell suspension to be tested was added to each well (except for peripheral wells) of three 384-well plates (plate 1: NCI-H358 cell suspension: plate 2: A549 cell suspension: plate 3: A375 cell suspension). The plates were placed in a carbon dioxide incubator overnight. […] The plates were incubated in a carbon dioxide incubator for 120 hours. To the 384-well plates were added 25 μL of CellTiter Glo reagents, and the mixture was shaken in the dark for 10 minutes and incubated for 10 minutes. The plates were read on the EnVision plate reader. XLFit was used to draw inhibition rate curves of efficacy and IC50 values were calculated. […] “---” represents not determined.

A549 cells = experiment: Proliferation inhibition on A549 cell line by CTG method; format: cell-based, human
Protocol: as §1, §2

NCI-H358 cells = experiment: Proliferation inhibition on NCI-H358 cell line by CTG method; format: cell-based, human; conditions: CellTiter Glo, 120 hours
Protocol: as §1, §2
Experiments for Testing Proliferation Inhibition of Compounds on NCI-H358 Cell Lines by CTG Method

[1] = Homo sapiens, A549, 120 h, Table 1, CellTiter Glo, class symbol
[2] = Homo sapiens, NCI-H358, 120 h, Table 1, class symbol, read-out: IC50 (μM): (H358)
[3] = Homo sapiens, NCI-H358, 120 h, Table 1, number, read-out: IC50 (μM): (H358)
[4] = Table 1, class symbol, read-out: IC50 (μM): (H358)
[5] = Homo sapiens, NCI-H358, 120 h, Table 2, class symbol, read-out: IC50 (nM) H358
[6] = Table 1, CellTiter Glo, 120 hours, class symbol

| SMILES | IC50 (A375 cells; Homo sapiens, A-375) [µM] | IC50 (A549 cells; [1]) [µM] | IC50 (NCI-H358 cells; [2]) [µM] | other results |
| --- | --- | --- | --- | --- |
| C=CC(=O)N1CCN(c2nc(OC[C@@H]3CCCN3C)nc3c2CC[C@H](c2ccccc2C(F)(F)F)C3)C[C@@H]1CC#N [Comparative compound 3′, reference compound] |  |  |  | IC50 (MIA PaCa-2 cells; number): 8.3 nM |
| Cc1cccc2cccc(C3Cc4nc(OC[C@@H]5CCCN5C)nc(N5CCN(C(=O)/C=C/CN(C)C)[C@@H](CC#N)C5)c4CO3)c12 (some centres unmarked) [Compound 17] | > 1 | > 1 | < 1 |  |
| C=CC(=O)N1CCN(c2nc(OC[C@@H]3CCCN3C)nc3c2CCN(c2ccccc2C(F)(F)F)C3)C[C@@H]1CC#N [Comparative compound 1′, reference compound] |  |  |  | IC50 (NCI-H358 cells; [3]): 0.0073 µM; IC50 (NCI-H358 cells; Homo sapiens, NCI-H358, 120 h, Table 2, number, read-out: IC50 (nM) H358): 0.0073 µM; IC50 (MIA PaCa-2 cells; number): 3.9 nM |
| C=CC(=O)N1CCN(c2nc(OCCN(C)C)nc3c2COC(c2cccc4cccc(C)c24)C3)C[C@@H]1CC#N (some centres unmarked) [Compound 5] |  | > 1 | < 1 |  |
| C=CC(=O)N1CCN(c2nc(OC[C@@H]3CCCN3C)nc3c2COC(c2cccc4cccc(C)c24)C3)C[C@@H]1CC#N (some centres unmarked) [Compound 4-1] | > 1 |  |  | IC50 (NCI-H358 cells; [4]): < 1 µM |
| C=CC(=O)N1CCN(c2nc(OC[C@@H]3CCCN3C)nc3c2COC(c2cccc4ccccc24)C3)C[C@@H]1CC#N (some centres unmarked) [Compound 3] |  | > 1 | < 1 |  |
| C=CC(=O)N1CCN(c2nc(NCCN(C)C)nc3c2CO[C@H](c2cccc4cccc(Cl)c24)C3)C[C@@H]1CC#N [Compound 45] |  |  |  | IC50 (NCI-H358 cells; [5]): < 1 µM |
| C/C=C/C(=O)N1CCN(c2nc(OC[C@@H]3CCCN3C)nc3c2COC(c2cccc4cccc(C)c24)C3)C[C@@H]1CC#N (some centres unmarked) [Compound 10] | > 1 | > 1 | < 1 |  |
| C=CC(=O)N1CCN(c2nc(OC[C@@H]3CCCN3C)nc3c2COC(c2cccc4cccc(C)c24)C3)C[C@@H]1CC#N (some centres unmarked) [Compound 4] |  | > 1 | < 1 |  |
| C=CC(=O)N1CCN(c2nc(OC[C@@H]3CCCN3C)nc3c2COC(c2cccc4ccccc24)C3)C[C@@H]1CC#N (some centres unmarked) [Compound 3-1] | > 1 |  |  |  |
| C=CC(=O)N1CCN(c2nc(OC[C@@H]3CCCN3C)nc3c2COC(c2cccc4cccc(Cl)c24)C3)C[C@@H]1CC#N (some centres unmarked) [Compound 25] | > 1 | > 1 | < 1 |  |
| CN1CCC[C@H]1COc1nc2c(c(N3CCN(C#N)[C@@H](CC#N)C3)n1)CO[C@H](c1cccc3cccc(Cl)c13)C2 [Compound 41] |  |  |  | IC50 (NCI-H358 cells; [5]): < 1 µM |
| C=CC(=O)N1CCN(c2nc(N(C)CCN(C)C)nc3c2COC(c2cccc4cccc(C)c24)C3)C[C@@H]1CC#N (some centres unmarked) [Compound 9] |  | > 1 | < 1 |  |
| C=CC(=O)N1CCN(c2nc(OC[C@@H]3CCCN3C)nc3c2COC(c2cccc4ccccc24)C3)C[C@@H]1CC#N (some centres unmarked) [Compound 3-2] |  |  |  | IC50 (A375 cells): > 1 µM |
| C=CC(=O)N1CCN(c2nc(OC[C@@H]3CCCN3C)nc3c2COC(c2cccc4cccc(C)c24)C3)CC1 (some centres unmarked) [Compound 8] |  | > 1 | < 1 |  |
| CN(C)C/C=C/C(=O)N1CCN(c2nc(OC[C@@H]3CCCN3C)nc3c2CO[C@H](c2cccc4cccc(Cl)c24)C3)C[C@@H]1CC#N [Compound 36] |  |  |  | IC50 (NCI-H358 cells; [5]): < 1 µM |
| C=C(F)C(=O)N1CCN(c2nc(OC[C@@H]3CCCN3C)nc3c2COC(c2cccc4cccc(Cl)c24)C3)C[C@@H]1CC#N (some centres unmarked) [Compound 12-2] | > 1 | > 1 | < 1 |  |
| Cc1cccc2cccc(C3Cc4nc(OC[C@@H]5CCCN5C)nc(N5CCN(C(=O)/C=C/CN6CCOCC6)[C@@H](CC#N)C5)c4CO3)c12 (some centres unmarked) [Compound 31] | > 1 | > 1 | < 1 |  |

| SMILES | IC50 (A375 cells; Homo sapiens, A-375) [µM] | IC50 (A549 cells; [1]) [µM] | IC50 (NCI-H358 cells; [2]) [µM] | other results |
| --- | --- | --- | --- | --- |
| C=C(F)C(=O)N1CCN(c2nc(OC[C@@H]3CCCN3C)nc3c2COC(c2cccc4cccc(C)c24)C3)C[C@@H]1CC#N (some centres unmarked) [Compound 13] | > 1 | > 1 | < 1 |  |
| C=CC(=O)N1CCN(c2nc(OC[C@@H]3CC(F)(F)CN3C)nc3c2COC(c2cccc4cccc(C)c24)C3)C[C@@H]1CC#N (some centres unmarked) [Compound 15] | > 1 | > 1 | < 1 |  |
| C=CC(=O)N1CCN(c2nc(OC[C@@H]3CCCN3C)nc3c2COC(c2cncc4ccccc24)C3)C[C@@H]1CC#N (some centres unmarked) [Compound 40] |  |  |  | IC50 (MIA PaCa-2 cells; class symbol): < 1000 nM |
| C=C(F)C(=O)N1CCN(c2nc(OC[C@H]3CCCN3C)nc3c2COC(c2cccc4cccc(Cl)c24)C3)C[C@@H]1CC#N (some centres unmarked) [Compound 32-2] | > 1 | > 1 | < 1 |  |
| C=CC(=O)N1CCN(c2nc(OC[C@@H]3CCCN3C)nc3c2COC(c2cccc4cccc(C)c24)C3)C[C@@H]1CC#N (some centres unmarked) [Compound 4-2] |  |  |  | IC50 (A375 cells): > 1 µM; IC50 (A549 cells; [6]): > 1 µM; IC50 (NCI-H358 cells; [4]): < 1 µM |
| CC(=O)/C=C/C(=O)N1CCN(c2nc(OC[C@@H]3CCCN3C)nc3c2CO[C@H](c2cccc4cccc(Cl)c24)C3)C[C@@H]1CC#N [Compound 44] |  |  |  | IC50 (NCI-H358 cells; [5]): < 1 µM |
| C=CC(=O)N1CCN(c2nc(SCCN(C)C)nc3c2CO[C@H](c2cccc4cccc(Cl)c24)C3)C[C@@H]1CC#N [Compound 46] |  |  |  | IC50 (NCI-H358 cells; [5]): < 1 µM |
| C=CC(=O)N1CCN(c2nc(OC[C@@H]3CCCN3C)nc3c2COCC3)C[C@@H]1CC#N [Compound 1] |  | > 1 | > 1 | IC50 (A549 cells; Homo sapiens, A549, 120 h, Table 1, CellTiter Glo, number): > 10 µM; IC50 (NCI-H358 cells; [3]): > 10 µM |
| C=CC(=O)N1CCN(c2nc(OC[C@@H]3CCCN3C)nc3c2COC(c2cccc4cccc(C)c24)C3)[C@@H](C)C1 (some centres unmarked) [Compound 11-2] | > 1 | > 1 | < 1 |  |
| CC#CC(=O)N1CCN(c2nc(OC[C@@H]3CCCN3C)nc3c2COC(c2cccc4cccc(C)c24)C3)C[C@@H]1CC#N (some centres unmarked) [Compound 24] | > 1 | > 1 | < 1 |  |
| C=CC(=O)N1CCN(c2nc(OC(C)CN(C)C)nc3c2COC(c2cccc4cccc(C)c24)C3)C[C@@H]1CC#N (some centres unmarked) [Compound 14] | > 1 | > 1 | < 1 |  |
| C=C(F)C(=O)N1CCN(c2nc(OC[C@@H]3CCCN3C)nc3c2COC(c2ccccc2Cl)C3)C[C@@H]1CC#N (some centres unmarked) [Compound 30] | > 1 | > 1 | < 1 |  |
| C=C(F)C(=O)N1CCN(c2nc(OC[C@H]3CCCN3C)nc3c2COC(c2ccccc2C(F)(F)F)C3)C[C@@H]1CC#N (some centres unmarked) [Compound 19-2] | > 1 | > 1 | < 1 |  |
| C=CC(=O)N1CCN(c2nc(OCCN(CC)CC)nc3c2COC(c2cccc4cccc(C)c24)C3)C[C@@H]1CC#N (some centres unmarked) [Compound 6-2] |  | > 1 | < 1 |  |
| C=CC(=O)N1CCN(c2nc(OC[C@@H]3CCCN3C)nc3c2COC(c2ccccc2C(F)(F)F)C3)C[C@@H]1CC#N (some centres unmarked) [Compound 2-1] |  |  |  | IC50 (A375 cells): > 1 µM; IC50 (A549 cells; [6]): > 1 µM; IC50 (NCI-H358 cells; [4]): < 1 µM |
| C=CC(=O)N1CCN(c2nc(OCCCN(C)C)nc3c2COC(c2cccc4cccc(C)c24)C3)C[C@@H]1CC#N (some centres unmarked) [Compound 7] |  | > 1 | < 1 |  |
| C=CC(=O)N1CCN(c2nc(OC[C@H]3CCCN3C)nc3c2COC(c2cccc4cccc(C)c24)C3)C[C@@H]1CC#N (some centres unmarked) [Compound 16] | > 1 | > 1 | < 1 |  |
